Reference: ChEMBL document CHEMBL1128242, “Polyiodinated triglyceride analogs as potential computed tomography imaging agents for the liver” (J Med Chem, 1995)

How the values were obtained:
[1] = test system: Rattus norvegicus; assay: Distribution of radioactivity was determined in spleen at 3h after intravenous administration of 1,3-Disubstituted Triacylglycerols in rats; assay type: ADME, organism-based; details: in vivo
[2] = test system: Rattus norvegicus; assay: Polyacrylamide Gel Electrophoresis (PAGE) to determined the concentration of low density lipoprotein (LDL) in rats after iv administration of [125I]-labeled 2-Oleolyl 1,3-disubstituted triglycerols was reported; assay type: ADME, organism-based; details: in vivo
[3] = test system: Rattus norvegicus; assay: Distribution of radioactivity was determined in blood at 24 hr after intravenous administration of [125I]-labeled 2-oleoglycerol 1,3-Bis-[omega-(3-amino-2,4,6-triiodophenyl)alkanoates] in rats; assay type: ADME, organism-based; details: in vivo
[4] = test system: Rattus norvegicus; assay: Distribution of radioactivity was determined in spleen at 48 hr after intravenous administration of 1,3-Disubstituted Triacylglycerols in rats; assay type: ADME, organism-based; details: in vivo
[5] = test system: Rattus norvegicus; assay: Distribution of radioactivity was determined in blood at 24 hr after intravenous administration of 1,3-Disubstituted Triacylglycerols in rats; assay type: ADME, organism-based; details: in vivo
[6] = test system: Rattus norvegicus; assay: Distribution of radioactivity was determined in liver at 48 hr after intravenous administration of 1,3-Disubstituted Triacylglycerols in rats; assay type: ADME, organism-based; details: in vivo
[7] = test system: Rattus norvegicus; assay: Distribution of radioactivity was determined in thyroid at 24 hr after intravenous administration of [125I]-labeled 2-oleoglycerol 1,3-Bis-[omega-(3-amino-2,4,6-triiodophenyl)alkanoates] in rats; assay type: ADME, organism-based, Thyroid gland; details: in vivo
[8] = test system: Rattus norvegicus; assay: Distribution of radioactivity was determined in heart at 3h after intravenous administration of [125I]-labeled 2-oleoglycerol 1,3-Bis-[omega-(3-amino-2,4,6-triiodophenyl)alkanoates] in rats; assay type: ADME, organism-based; details: in vivo
[9] = test system: Rattus norvegicus; assay: Distribution of radioactivity was determined in liver at 24 hr after intravenous administration of [125I]-labeled 2-oleoglycerol 1,3-Bis-[omega-(3-amino-2,4,6-triiodophenyl)alkanoates] in rats; assay type: ADME, organism-based; details: in vivo
[10] = test system: Rattus norvegicus; assay: Distribution of radioactivity was determined in liver at 30 min after intravenous administration of 1,3-Disubstituted Triacylglycerols in rats; assay type: ADME, organism-based; details: in vivo, 0.5 h
[11] = test system: Rattus norvegicus; assay: Distribution of radioactivity was determined in blood at 30 min after intravenous administration of [125I]-labeled 2-oleoglycerol 1,3-Bis-[omega-(3-amino-2,4,6-triiodophenyl)alkanoates] in rats; assay type: ADME, organism-based; details: in vivo, 0.5 h
[12] = test system: Rattus norvegicus; assay: Distribution of radioactivity was determined in heart at 30 min after intravenous administration of [125I]-labeled 2-oleoglycerol 1,3-Bis-[omega-(3-amino-2,4,6-triiodophenyl)alkanoates] in rats; assay type: ADME, organism-based; details: in vivo, 0.5 h
[13] = test system: Rattus norvegicus; assay: Polyacrylamide Gel Electrophoresis (PAGE) to determined the concentration of stacking gel(SG) in rats after iv administration of [125I]-labeled 2-Oleolyl 1,3-disubstituted triglycerols was reported; assay type: ADME, organism-based; details: in vivo
[14] = test system: Rattus norvegicus; assay: Analysis of lipid-soluble radioactivity in liver 0.5 hour after iv administration of [125I]-labeled 2-Oleoyl 1,3-disubstituted Triacylglycerols and represented as % CHCl3/CH3OH from rat; assay type: ADME, organism-based; details: in vivo
[15] = test system: Rattus norvegicus; assay: Distribution of radioactivity was determined in plasma at 3h after intravenous administration of [125I]-labeled 2-oleoglycerol 1,3-Bis-[omega-(3-amino-2,4,6-triiodophenyl)alkanoates] in rats; assay type: ADME, organism-based; details: in vivo
[16] = test system: Rattus norvegicus; assay: Distribution of radioactivity was determined in lung at 24 hr after intravenous administration of [125I]-labeled 2-oleoglycerol 1,3-Bis-[omega-(3-amino-2,4,6-triiodophenyl)alkanoates] in rats; assay type: ADME, organism-based; details: in vivo
[17] = test system: Rattus norvegicus; assay: Distribution of radioactivity was determined in kidney at 3h after intravenous administration of [125I]-labeled 2-oleoglycerol 1,3-Bis-[omega-(3-amino-2,4,6-triiodophenyl)alkanoates] in rats; assay type: ADME, organism-based; details: in vivo
[18] = test system: Rattus norvegicus; assay: Analysis of lipid-soluble radioactivity in liver 0.5 hour after iv administration of [125I]-labeled 2-Oleoyl 1,3-disubstituted Triacylglycerols expressed as %parent compound (by TLC with authentic [125I]-labeled standard) from rat; assay type: ADME, organism-based; details: in vivo
[19] = test system: Rattus norvegicus; assay: Distribution of radioactivity was determined in liver at 24 hr after intravenous administration of 1,3-Disubstituted Triacylglycerols in rats; assay type: ADME, organism-based; details: in vivo
[20] = test system: Rattus norvegicus; assay: Distribution of radioactivity was determined in thyroid at 3h after intravenous administration of [125I]-labeled 2-oleoglycerol 1,3-Bis-[omega-(3-amino-2,4,6-triiodophenyl)alkanoates] in rats; assay type: ADME, organism-based, Thyroid gland; details: in vivo
[21] = test system: Rattus norvegicus; assay: Polyacrylamide Gel Electrophoresis (PAGE) to determined the concentration of below albumin(BA) in rats after iv administration of [125I]-labeled 2-Oleolyl 1,3-disubstituted triglycerols was reported; assay type: ADME, organism-based; details: in vivo
[22] = test system: Rattus norvegicus; assay: Distribution of radioactivity was determined in lung at 30 min after intravenous administration of [125I]-labeled 2-oleoglycerol 1,3-Bis-[omega-(3-amino-2,4,6-triiodophenyl)alkanoates] in rats; assay type: ADME, organism-based; details: in vivo, 0.5 h
[23] = test system: Rattus norvegicus; assay: Analysis of lipid-soluble radioactivity in liver 24 hour after iv administration of [125I]-labeled 2-Oleoyl 1,3-disubstituted Triacylglycerols expressed as %parent compound (by TLC with authentic [125I]-labeled standard) from rat; assay type: ADME, organism-based; details: in vivo
[24] = test system: Rattus norvegicus; assay: Analysis of lipid-soluble radioactivity in liver 24 hour after iv administration of [125I]-labeled 2-Oleoyl 1,3-disubstituted Triacylglycerols and represented as % CHCl3/CH3OH from rat; assay type: ADME, organism-based; details: in vivo
[25] = test system: Rattus norvegicus; assay: Distribution of radioactivity was determined in liver at 3h after intravenous administration of 1,3-Disubstituted Triacylglycerols in rats; assay type: ADME, organism-based; details: in vivo
[26] = test system: Rattus norvegicus; assay: Analysis of lipid-soluble radioactivity in plasma 0.5 hour after iv administration of [125I]-labeled 2-Oleoyl 1,3-disubstituted Triacylglycerols and represented as % CHCl3/CH3OH from rat; assay type: ADME, organism-based; details: in vivo
[27] = test system: Rattus norvegicus; assay: Analysis of lipid-soluble radioactivity in plasma 24 hour after iv administration of [125I]-labeled 2-Oleoyl 1,3-disubstituted Triacylglycerols and represented as % CHCl3/CH3OH from rat; assay type: ADME, organism-based; details: in vivo
[28] = test system: Rattus norvegicus; assay: Distribution of radioactivity was determined in lung at 3h after intravenous administration of [125I]-labeled 2-oleoglycerol 1,3-Bis-[omega-(3-amino-2,4,6-triiodophenyl)alkanoates] in rats; assay type: ADME, organism-based; details: in vivo
[29] = test system: Rattus norvegicus; assay: Polyacrylamide Gel Electrophoresis (PAGE) to determined the concentration of albumin(ALB) in rats after iv administration of [125I]-labeled 2-Oleolyl 1,3-disubstituted triglycerols was reported; assay type: ADME, organism-based; details: in vivo
[30] = test system: Rattus norvegicus; assay: Analysis of lipid-soluble radioactivity in plasma 0.5 hour after iv administration of [125I]-labeled 2-Oleoyl 1,3-disubstituted Triacylglycerols expressed as %parent compound (by TLC with authentic [125I]-labeled standard) from rat; assay type: ADME, organism-based; details: in vivo
[31] = test system: Rattus norvegicus; assay: Distribution of radioactivity was determined in blood at 3h after intravenous administration of [125I]-labeled 2-oleoglycerol 1,3-Bis-[omega-(3-amino-2,4,6-triiodophenyl)alkanoates] in rats; assay type: ADME, organism-based; details: in vivo
[32] = test system: Rattus norvegicus; assay: Distribution of radioactivity was determined in blood at 3h after intravenous administration of 1,3-Disubstituted Triacylglycerols in rats; assay type: ADME, organism-based; details: in vivo
[33] = test system: Rattus norvegicus; assay: Distribution of radioactivity was determined in plasma at 24 hr after intravenous administration of [125I]-labeled 2-oleoglycerol 1,3-Bis-[omega-(3-amino-2,4,6-triiodophenyl)alkanoates] in rats; assay type: ADME, organism-based; design: unit not given here; details: in vivo
[34] = test system: Rattus norvegicus; assay: Distribution of radioactivity was determined in kidney at 30 min after intravenous administration of [125I]-labeled 2-oleoglycerol 1,3-Bis-[omega-(3-amino-2,4,6-triiodophenyl)alkanoates] in rats; assay type: ADME, organism-based; details: in vivo, 0.5 h
[35] = test system: Rattus norvegicus; assay: Distribution of radioactivity was determined in spleen at 30 min after intravenous administration of 1,3-Disubstituted Triacylglycerols in rats; assay type: ADME, organism-based; details: in vivo, 0.5 h

Structure (SMILES)	Distribution of radioactivity [1]	Radioactivity [2]	Distribution of radioactivity [3]	Distribution of radioactivity [4]	Distribution of radioactivity [5]	Distribution of radioactivity [6]	Distribution of radioactivity [7]	Distribution of radioactivity [8]	Distribution of radioactivity [9]	Radioactivity per organ [10]	Distribution of radioactivity [11]	Distribution of radioactivity [12]	Radioactivity [13]	Lipid-soluble radioactivity [14]	Distribution of radioactivity [15]	Distribution of radioactivity [16]	Distribution of radioactivity [17]	Lipid-soluble radioactivity [18]	Distribution of radioactivity [19]	Distribution of radioactivity [20]	other results
CCCCCCCC/C=C/CCCCCCCC(=O)OC(COC(=O)CCCCCc1c(I)cc(I)c(N)c1I)COC(=O)CCCCCc1c(I)cc(I)c(N)c1I	11.3 % dose/organ	4.8%	0.1 % dose/g	3.1 % dose per organ	1.1 % dose/organ	22.4 % dose/organ	5.13 % dose/g	0.2 % dose/g	4.2 % dose/g	66.8 % dose/organ	0.38 % dose/g	0.23 % dose/g	72.6%	91.3	0.24 % dose/g	0.26 % dose/g	0.21 % dose/g	96.8	34.9 % dose/organ	0.91 % dose/g	Radioactivity [21]: 0.6%; Distribution of radioactivity [22]: 0.26 % dose/g; Lipid-soluble radioactivity [23]: 97.9; Lipid-soluble radioactivity [24]: 90.3; Distribution of radioactivity [25]: 66 % dose/organ; Lipid-soluble radioactivity [26]: 89.9; Lipid-soluble radioactivity [27]: 80.6; Distribution of radioactivity [28]: 0.21 % dose/g; Radioactivity [29]: 15%; Lipid-soluble radioactivity [30]: 82.2; Distribution of radioactivity [31]: 0.2 % dose/g; Distribution of radioactivity [32]: 2.2 % dose/organ; Distribution of radioactivity [33]: 0.14; Distribution of radioactivity [34]: 0.09 % dose/g; Distribution of radioactivity [35]: 13.9 % dose/organ
CCCCCCCC/C=C/CCCCCCCC(=O)OC(COC(=O)CCCCc1c(I)cc(I)c(N)c1I)COC(=O)CCCCc1c(I)cc(I)c(N)c1I	8 % dose/organ	8.1%	0.14 % dose/g	3.7 % dose per organ	1.4 % dose/organ	26.8 % dose/organ	6.74 % dose/g	0.09 % dose/g	4.53 % dose/g	65.1 % dose/organ	0.08 % dose/g	0.59 % dose/g	65.6%	91.1	0.09 % dose/g	0.59 % dose/g	0.09 % dose/g	98.9	36.1 % dose/organ	1.16 % dose/g	Radioactivity [21]: 0.1%; Distribution of radioactivity [22]: 0.54 % dose/g; Lipid-soluble radioactivity [23]: 86.5; Lipid-soluble radioactivity [24]: 88.8; Distribution of radioactivity [25]: 60.7 % dose/organ; Lipid-soluble radioactivity [26]: 77.4; Lipid-soluble radioactivity [27]: 54.5; Distribution of radioactivity [28]: 0.46 % dose/g; Radioactivity [29]: 20.7%; Lipid-soluble radioactivity [30]: 42.3; Distribution of radioactivity [31]: 0.08 % dose/g; Distribution of radioactivity [32]: 0.9 % dose/organ; Distribution of radioactivity [33]: 0.14; Distribution of radioactivity [34]: 0.05 % dose/g; Distribution of radioactivity [35]: 9.5 % dose/organ
